Converted amounts (≈) assume the structure as drawn.
Tests used:
[1] = as disclosed in co-pending application; cited from earlier work
[2] = aqueous solubility of crystalline Compound (I); type: physicochemical; conditions: water (aqueous); crystalline material P-1
From the text: Compound (I) exists in several different crystalline forms: P-1, P-2, P-3, and P-4. […] The present invention relates to formulations that effectively deliver Compound (I).

| Structure (SMILES) | solubility of Compound (I) in crystalline form [1] | solubility [2] |
| --- | --- | --- |
| COc1cnc(-n2cnc(C)n2)c2[nH]cc(C(=O)C(=O)N3CCN(C(=O)c4ccccc4)CC3)c12 [Compound (I), 1-(4-benzoyl-piperazin-1-yl)-2-[4-methoxy-7-(3-methyl-[1,2,4]triazol-1-yl)-1H-pyrrolo[2,3-c]pyridin-3-yl]-ethane-1,2-dione] | typically low | – |
| COc1cnc(-n2cnc(C)n2)c2[nH]cc(C(=O)C(=O)N3CCN(C(=O)c4ccccc4)CC3)c12 [Sample P-1, 1-(4-benzoyl-piperazin-1-yl)-2-[4-methoxy-7-(3-methyl-[1,2,4]triazol-1-yl)-1H-pyrrolo[2,3-c]pyridin-3-yl]-ethane-1,2-dione] | – | 2.7 µg/mL (≈ 5.7 µM) |
